From patent US11919887B2, “Substituted tetrahydrofurans as modulators of sodium channels” (Vertex Pharmaceuticals Incorporated, priority 2019, dated 2024)
pIC50: −log10 of the molar value.

Biological target: human Nav 1.8 (Homo sapiens, UniProt Q9Y5Y9)
Assay: E-VIPR assay detecting and measuring Nav inhibition (HEK cells expressing truncated human Nav 1.8)
Type: cell-based
Details: in the Absence of Human Serum in the E-VIPR Assay
Outline: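 HEK cells expressing truncated human Nav1.8, transduced with KIR2.1 BacMam, were loaded with CC2-DMPE/DiSBAC6(3) FRET dyes and tested under electrical stimulation (E-VIPR). Compounds were run as 11-point 3-fold dilutions, top 300 nM final, 0.625% DMSO, with or without 25% human serum.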

human Nav 1.8, sequence (Q9Y5Y9 whole entry, looked up, the tested form may be a part): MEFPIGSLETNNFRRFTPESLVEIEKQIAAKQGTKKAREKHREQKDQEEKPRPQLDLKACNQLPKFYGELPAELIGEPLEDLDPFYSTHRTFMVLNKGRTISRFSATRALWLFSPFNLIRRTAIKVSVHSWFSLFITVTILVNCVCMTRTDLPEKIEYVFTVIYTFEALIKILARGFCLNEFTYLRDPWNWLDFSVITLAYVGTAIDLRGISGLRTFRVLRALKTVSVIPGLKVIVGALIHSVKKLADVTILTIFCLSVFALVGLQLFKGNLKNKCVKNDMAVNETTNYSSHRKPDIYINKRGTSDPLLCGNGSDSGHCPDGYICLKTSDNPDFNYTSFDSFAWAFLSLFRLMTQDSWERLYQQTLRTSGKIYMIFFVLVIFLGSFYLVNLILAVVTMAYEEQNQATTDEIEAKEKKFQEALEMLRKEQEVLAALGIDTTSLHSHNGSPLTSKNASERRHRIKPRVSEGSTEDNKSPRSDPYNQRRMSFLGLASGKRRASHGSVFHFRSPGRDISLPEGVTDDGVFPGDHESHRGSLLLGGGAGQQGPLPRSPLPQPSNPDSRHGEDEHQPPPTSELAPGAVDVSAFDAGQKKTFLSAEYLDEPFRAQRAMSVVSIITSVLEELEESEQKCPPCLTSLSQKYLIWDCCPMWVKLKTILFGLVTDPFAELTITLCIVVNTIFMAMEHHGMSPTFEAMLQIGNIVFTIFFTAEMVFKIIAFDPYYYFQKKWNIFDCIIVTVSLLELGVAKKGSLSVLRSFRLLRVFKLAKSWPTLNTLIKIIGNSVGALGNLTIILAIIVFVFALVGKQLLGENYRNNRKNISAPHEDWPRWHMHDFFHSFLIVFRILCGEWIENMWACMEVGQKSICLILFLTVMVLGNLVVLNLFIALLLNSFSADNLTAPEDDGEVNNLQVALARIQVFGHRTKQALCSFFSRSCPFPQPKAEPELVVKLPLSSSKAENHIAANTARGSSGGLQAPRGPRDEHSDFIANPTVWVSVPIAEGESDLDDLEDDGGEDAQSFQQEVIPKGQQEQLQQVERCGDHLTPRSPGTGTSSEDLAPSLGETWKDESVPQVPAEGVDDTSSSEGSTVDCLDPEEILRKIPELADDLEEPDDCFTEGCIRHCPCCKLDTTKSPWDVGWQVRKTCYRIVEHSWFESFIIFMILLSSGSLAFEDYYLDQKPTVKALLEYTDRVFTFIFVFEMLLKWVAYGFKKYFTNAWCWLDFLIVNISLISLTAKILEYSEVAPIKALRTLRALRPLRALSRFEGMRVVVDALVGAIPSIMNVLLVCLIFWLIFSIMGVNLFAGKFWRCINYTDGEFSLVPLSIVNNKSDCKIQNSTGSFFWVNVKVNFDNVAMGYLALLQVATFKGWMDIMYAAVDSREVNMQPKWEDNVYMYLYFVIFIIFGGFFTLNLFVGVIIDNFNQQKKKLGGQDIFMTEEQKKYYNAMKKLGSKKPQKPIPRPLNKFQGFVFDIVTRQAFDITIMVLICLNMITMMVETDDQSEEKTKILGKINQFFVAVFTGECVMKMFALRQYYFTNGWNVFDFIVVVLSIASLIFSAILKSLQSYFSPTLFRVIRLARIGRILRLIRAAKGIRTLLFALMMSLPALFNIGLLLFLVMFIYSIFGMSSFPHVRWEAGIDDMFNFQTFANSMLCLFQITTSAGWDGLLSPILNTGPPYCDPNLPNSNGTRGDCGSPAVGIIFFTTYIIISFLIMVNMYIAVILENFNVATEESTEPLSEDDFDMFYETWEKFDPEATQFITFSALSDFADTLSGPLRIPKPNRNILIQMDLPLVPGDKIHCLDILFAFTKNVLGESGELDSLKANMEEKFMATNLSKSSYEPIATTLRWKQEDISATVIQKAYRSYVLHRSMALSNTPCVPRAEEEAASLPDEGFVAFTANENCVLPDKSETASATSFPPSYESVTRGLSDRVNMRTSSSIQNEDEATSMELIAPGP

Question: With `[2H]c1cnc(C(N)=O)cc1NC(=O)[C@@H]1O[C@@](C)(C(F)(F)F)[C@@H](C)[C@H]1c1ccc(F)c(F)c1OC` [Compound 124, 5-deuterio-4-[[(2R,3S,4S,5R)-3-(3,4-difluoro-2-methoxy-phenyl)-4,5-dimethyl-5-(trifluoromethyl)tetrahydrofuran-2-carbonyl]amino]pyridine-2-carboxamide] as the molecule, how does the pIC50 read?
Answer: Its pIC50 is over 8.00.

Question: With `[2H]c1c(NC(=O)[C@@H]2O[C@@](C)(C(F)(F)F)[C@@H](C)[C@H]2c2ccc(F)c(F)c2OC)ccnc1C(N)=O` [Compound 129, 3-deuterio-4-[[(2R,3S,4S,5R)-3-(3,4-difluoro-2-methoxy-phenyl)-4,5-dimethyl-5-(trifluoromethyl)tetrahydrofuran-2-carbonyl]amino]pyridine-2-carboxamide] as the molecule, how does the pIC50 read?
Answer: Its pIC50 is over 8.00.

Question: How did the pIC50 turn out when `[2H]c1cc([C@H]2[C@H](C(=O)Nc3ccnc(C(N)=O)c3)O[C@@](C)(C(F)(F)F)[C@H]2C)c(OC)c(F)c1F` [Compound 148, 4-[[(2R,3S,4S,5R)-3-(5-deuterio-3,4-difluoro-2-methoxy-phenyl)-4,5-dimethyl-5-(trifluoromethyl)tetrahydrofuran-2-carbonyl]amino]pyridine-2-carboxamide] was run?
Answer: Its pIC50 is over 8.00.

Same assay, conditions: in the Absence of Human Serum in the E-VIPR Assay; read-out: IC50

Question: `COc1c([C@H]2[C@H](C(=O)Nc3cc(C(N)=O)ncn3)O[C@@](C)(C(F)(F)F)[C@H]2C)ccc(F)c1F` [Compound 121, 6-[[(2R,3S,4S,5R)-3-(3,4-difluoro-2-methoxy-phenyl)-4,5-dimethyl-5-(trifluoromethyl)tetrahydrofuran-2-carbonyl]amino]pyrimidine-4-carboxamide] was tested. Which pIC50 did it give?
Answer: Its pIC50 is over 8.00.

Question: `COc1c([C@H]2[C@H](C(=O)Nc3cc(C(N)=O)ncc3F)O[C@@](C)(C(F)(F)F)[C@H]2C)ccc(F)c1F` [Compound 122, 4-[[(2R,3S,4S,5R)-3-(3,4-difluoro-2-methoxy-phenyl)-4,5-dimethyl-5-(trifluoromethyl)tetrahydrofuran-2-carbonyl]amino]-5-fluoro-pyridine-2-carboxamide] was tested. Which pIC50 did it give?
Answer: The pIC50 was over 8.00.

Question: How did the pIC50 turn out when `COc1c([C@H]2[C@H](C(=O)Nc3ccc(F)c(C(N)=O)c3)O[C@@](C)(C(F)(F)F)[C@H]2C)ccc(F)c1F` [Compound 123, (2R,3S,4S,5R)-N-(3-carbamoyl-4-fluoro-phenyl)-3-(3,4-difluoro-2-methoxy-phenyl)-4,5-dimethyl-5-(trifluoromethyl)tetrahydrofuran-2-carboxamide] was run?
Answer: The pIC50 was over 8.00.

Question: How did the pIC50 turn out when `COc1c([C@H]2[C@H](C(=O)Nc3ccnc(C(N)=O)c3F)O[C@@](C)(C(F)(F)F)[C@H]2C)ccc(F)c1F` [Compound 126, 4-[[(2R,3S,4S,5R)-3-(3,4-difluoro-2-methoxy-phenyl)-4,5-dimethyl-5-(trifluoromethyl)tetrahydrofuran-2-carbonyl]amino]-3-fluoro-pyridine-2-carboxamide] was run?
Answer: The pIC50 was over 8.00.

Question: With `COc1c([C@H]2[C@H](C(=O)Nc3cc(F)nc(C(N)=O)c3)O[C@@](C)(C(F)(F)F)[C@H]2C)ccc(F)c1F` [Compound 127, 4-[[(2R,3S,4S,5R)-3-(3,4-difluoro-2-methoxy-phenyl)-4,5-dimcthyl-5-(trifluoromethyl)tetrahydrofuran-2-carbonyl]amino]-6-fluoro-pyridine-2-carboxamide] as the molecule, how does the pIC50 read?
Answer: The pIC50 was over 8.00.

Question: How did the pIC50 turn out when `C[C@H]1[C@@H](c2ccc(F)c(F)c2OC2CCC2)[C@H](C(=O)Nc2ccnc(C(N)=O)c2)O[C@@]1(C)C(F)(F)F` [Compound 147, 4-[[(2R,3S,4S,5R)-3-[2-(cyclobutoxy)-3,4-difluoro-phenyl]-4,5-dimethyl-5-(trifluoromethyl)tetrahydrofuran-2-carbonyl]amino]pyridine-2-carboxamide] was run?
Answer: The pIC50 was over 8.00.

Question: With `C=Cc1c([C@H]2[C@H](C(=O)Nc3ccnc(C(N)=O)c3)O[C@@](C)(C(F)(F)F)[C@H]2C)ccc(F)c1F` [Compound 149, 4-[[(2R,3S,4S,5R)-3-(3,4-difluoro-2-vinyl-phenyl)-4,5-dimethyl-5-(trifluoromethyl)tetrahydrofuran-2-carbonyl]amino]pyridine-2-carboxamide] as the molecule, how does the pIC50 read?
Answer: Its pIC50 is over 8.00.

Question: With `COc1c([C@H]2[C@H](C(=O)Nc3ccnc(C(N)=O)c3)O[C@@](C)(C(F)(F)F)[C@H]2C)cc(Cl)c(F)c1F` [Compound 152, 4-[[(2R,3S,4S,5R)-3-(5-chloro-3,4-difluoro-2-methoxy-phenyl)-4,5-dimethyl-5-(trifluoromethyl)tetrahydrofuran-2-carbonyl]amino]pyridine-2-carboxamide] as the molecule, how does the pIC50 read?
Answer: Its pIC50 is over 8.00.

Same assay, conditions: in the Presence of Human Serum in the E-VIPR Assay

Question: With `[2H]C([2H])([2H])Oc1c([C@H]2[C@H](C(=O)Nc3ccnc(C(N)=O)c3)O[C@@](C)(C(F)(F)F)[C@H]2C)ccc(F)c1F` [compound 26] as the molecule, how does the pIC50 read?
Answer: The pIC50 was over 8.00.

Same assay, conditions: in the Presence of Human Serum in the E-VIPR Assay; read-out: IC50

Question: How did the pIC50 turn out when `C[C@H]1[C@@H](c2ccc(F)c(F)c2OCC2CC(F)(F)C2)[C@H](C(=O)Nc2ccnc(C(N)=O)c2)O[C@@]1(C)C(F)(F)F` [Compound 146, 4-[[(2R,3S,4S,5R)-3-[2-[(3,3-difluorocyclobutyl)methoxy]-3,4-difluoro-phenyl]-4,5-dimethyl-5-(trifluoromethyl)tetrahydrofuran-2-carbonyl]amino]pyridine-2-carboxamide] was run?
Answer: The pIC50 was 7.00 to 8.00.

Question: `C[C@@]1(C(F)(F)F)C[C@H](c2ccc(F)cc2OC(F)F)[C@@H](C(=O)Nc2ccnc(C(N)=O)c2)O1` [compound 73] was tested. Which pIC50 did it give?
Answer: Its pIC50 is under 6.00.

Question: With `C[C@]1(C(F)(F)F)C[C@@H](c2ccc(F)cc2OC(F)F)[C@H](C(=O)Nc2ccnc(C(N)=O)c2)O1` [compound 74] as the molecule, how does the pIC50 read?
Answer: The pIC50 was 7.00 to 8.00.
